Measured values published in article PMC6667648 (Frontiers in Microbiology, 2019).
In brackets after ≈: the same amount, converted by molar mass. Read-outs that look alike come from different tables or passages of the source.

Columns and labels:
P. aeruginosa ATCC 27853 [1] = experiment: Antibiotic resistance profiling, 30 serial passages; assay type: cell-based, Pseudomonas aeruginosa; conditions: for MIC: Pseudomonas aeruginosa
Source text: (§1) The development of resistance was confirmed if the microorganism started growing at continuously higher concentrations. […] Evaluations were done in duplicate.

A. baumannii 6043 = experiment: microbe, parasite or virus in culture; assay type: cell-based, Acinetobacter baumannii; conditions: A. baumannii 6043, 24-h incubation, mean of 3 replicates from 2 independent experiments
Method: (§2) Strains were obtained from American Type Culture Collection (ATCC, Manassas, VA) or the clinical isolate collection at Trideum Biosciences (Frederick, MD, USA). Bioluminescence strains of P. aeruginosa 19660, transfected with the Xen5 luciferase gene, and S. aureus ATCC® 49525™ (Wright), transfected with the Xen36 luciferase gene, were obtained from Perkin Elmer (Hopkinton, MA).
(§3) A single colony was aseptically picked from an agar overlay and released in 25–30 mL of pre-warmed trypticase soy broth in a culture flask. Each culture was incubated overnight in a 37°C incubator. […] Pathogen growth was measured by absorbance at 600 nm. Four replicas were included for each test agent concentration. […]

A. baumannii 6838 = experiment: microbe, parasite or virus in culture; assay type: cell-based, Acinetobacter baumannii; conditions: A. baumannii 6838, 24-h incubation, mean of 3 replicates from 2 independent experiments
Method: as §2, §3

A. baumannii ATCC 17978 = experiment: microbe, parasite or virus in culture; assay type: cell-based, Acinetobacter baumannii; conditions: Acinetobacter baumannii, ATCC17978; A. baumannii ATCC 17978; 24-h incubation; mean of 3 replicates from 2 independent experiments; read-out: Minimum Inhibitory Concentration (MIC)
Method: as §2, §3

K. pneumonia 6066 = experiment: microbe, parasite or virus in culture; assay type: cell-based, Klebsiella pneumoniae; conditions: K. pneumonia 6066, 24-h incubation, mean of 3 replicates from 2 independent experiments
Method: as §2, §3

K. pneumonia 6069 = experiment: microbe, parasite or virus in culture; assay type: cell-based, Klebsiella pneumoniae; conditions: K. pneumonia 6069, 24-h incubation, mean of 3 replicates from 2 independent experiments
Method: as §2, §3

K. pneumonia ATCC 10031 = experiment: microbe, parasite or virus in culture; assay type: cell-based, Klebsiella pneumoniae; conditions: K. pneumonia ATCC 10031, 24-h incubation, mean of 3 replicates from 2 independent experiments
Method: as §2, §3

P. aeruginosa 6186 = experiment: microbe, parasite or virus in culture; assay type: cell-based, Pseudomonas aeruginosa; conditions: P. aeruginosa 6186, 24-h incubation, mean of 3 replicates from 2 independent experiments
Method: as §2, §3

P. aeruginosa ATCC 19660 = experiment: microbe, parasite or virus in culture; assay type: cell-based, Pseudomonas aeruginosa; conditions: P. aeruginosa ATCC 19660, 24-h incubation, mean of 3 replicates from 2 independent experiments
Method: as §2, §3

P. aeruginosa ATCC 27853 [2] = experiment: microbe, parasite or virus in culture; assay type: cell-based, Pseudomonas aeruginosa; conditions: P. aeruginosa ATCC 27853, 24-h incubation, mean of 3 replicates from 2 independent experiments
Method: as §2, §3

MRSA 6313 = experiment: microbe, parasite or virus in culture; assay type: cell-based, Staphylococcus aureus; conditions: MRSA 6313, 24-h incubation, mean of 3 replicates from 2 independent experiments
Method: as §2, §3

MRSA 6381 = experiment: microbe, parasite or virus in culture; assay type: cell-based, Staphylococcus aureus; conditions: MRSA 6381, 24-h incubation, mean of 3 replicates from 2 independent experiments
Method: as §2, §3

MRSA ATCC 33592 = experiment: microbe, parasite or virus in culture; assay type: cell-based, Staphylococcus aureus; conditions: MRSA ATCC 33592, 24-h incubation, mean of 3 replicates from 2 independent experiments
Method: as §2, §3

S. aureus 6061 = experiment: microbe, parasite or virus in culture; assay type: cell-based, Staphylococcus aureus; conditions: S. aureus 6061, 24-h incubation, mean of 3 replicates from 2 independent experiments
Method: as §2, §3

S. aureus B-767 = experiment: microbe, parasite or virus in culture; assay type: cell-based, Staphylococcus aureus; conditions: S. aureus B-767, 24-h incubation, mean of 3 replicates from 2 independent experiments
Method: as §2, §3

S. epidermis ATCC 51625 = experiment: microbe, parasite or virus in culture; assay type: cell-based, S. epidermidis; conditions: S. epidermis ATCC 51625, 24-h incubation, mean of 3 replicates from 2 independent experiments
Method: as §2, §3

E. cloacae 6053 = experiment: microbe, parasite or virus in culture; assay type: cell-based; conditions: E. cloacae 6053, 24-h incubation, mean of 3 replicates from 2 independent experiments
Method: as §2, §3

E. cloacae 6054 = experiment: microbe, parasite or virus in culture; assay type: cell-based; conditions: E. cloacae 6054, 24-h incubation, mean of 3 replicates from 2 independent experiments
Method: as §2, §3

[3] = tested on: bioluminescent P. aeruginosa 19660; experiment: Bioluminescence time-kill assay; assay type: cell-based, Pseudomonas aeruginosa; conditions: antibiotics after 30 min incubation, triplicates, two independent experiments
Method: as §2
(§4) Non-invasive real-time evaluation of viability, mammalian, and bacterial cells, was performed using bioluminescent human keratinocytes (HaCaT, AddexBio, San Diego, CA) and murine L929 fibroblast cells (ATCC, Manassas, VA). The bioluminescent variants were constructed by transfection with a luciferase gene (RediFect Red-Fluc-Puromycin, Catalog #CL596002) (Hamblin et al., [2003]). […] Each concentration was performed in triplicate. Bioluminescence imaging was performed at pre-specified times (0, 15, and 30 min and 1, 3, 5, 8, and 24 h) and compared to concurrently run vehicle-controls. The 96-well plate was positioned on the stage (12.5-cm field of view) within the in vivo Imaging System (IVIS) imaging system (Caliper Life Sciences, Inc., Hopkinton, MA, USA), with an open emission filter, binning of 4, and f-stop 1, and a 1-min exposure time. The resultant photons emitted from the live cells were quantified using Living Image® software (version 4.3, Caliper Life Sciences, Inc.). […]

[4] = tested on: bioluminescent S. aureus 49525; experiment: Bioluminescence time-kill assay; assay type: cell-based, Staphylococcus aureus; conditions: antibiotics after 30 min incubation, triplicates, two independent experiments
Method: as §2, §4

S. aureus ATCC 29213 = experiment: microbe, parasite or virus in culture; conditions: for MIC: Staphylococcus aureus
Source text: as §1

[5] = Acinetobacter baumannii, read-out: Minimum Inhibitory Concentration (MIC)
[6] = Klebsiella pneumoniae, read-out: Minimum Inhibitory Concentration (MIC)
[7] = Staphylococcus aureus, read-out: Minimum Inhibitory Concentration (MIC)
[8] = Enterobacter cloacae, read-out: Minimum Inhibitory Concentration (MIC)

For CNC(C)C1CCC(N)C(OC2C(N)CC(N)C(OC3OCC(C)(O)C(NC)C3O)C2O)O1 (centres unmarked) [gentamicin], the “Fold increase in MIC value, Passage #30 vs #0” value (P. aeruginosa ATCC 27853 [1]; P. aeruginosa ATCC 27853) was 4,096 fold, the MIC (P. aeruginosa ATCC 27853 [1]; ATCC27853, read-out: MIC during Passage #0 and Passage #1) was 0.125 µg/mL (≈ 0.262 µM) and the MIC (P. aeruginosa ATCC 27853 [1]; ATCC27853, read-out: MIC during Passage #30) was 512 µg/mL (≈ 1070 µM).
NC[C@H]1O[C@H](O[C@H]2[C@H](O)[C@@H](O[C@H]3O[C@H](CO)[C@@H](O)[C@H](N)[C@H]3O)[C@H](N)C[C@@H]2N)[C@H](N)C[C@@H]1O [Tobramycin, tobramycin] showed an MIC (A. baumannii 6043; [5]) of 68.5 µM (≈ 32 µg/mL), an MIC (A. baumannii 6838; [5]) of 4.3 µM (≈ 2.01 µg/mL) and an MIC (A. baumannii ATCC 17978) of 4.3 µM (≈ 2.01 µg/mL). It also gave an MIC (K. pneumonia 6066; [6]) of 8.6 µM (≈ 4.02 µg/mL), an MIC (K. pneumonia 6069; [6]) of 4.3 µM (≈ 2.01 µg/mL) and an MIC (K. pneumonia ATCC 10031; Klebsiella pneumoniae, ATCC10031, read-out: Minimum Inhibitory Concentration (MIC)) of 4.3 µM (≈ 2.01 µg/mL). The MIC (P. aeruginosa 6186; Pseudomonas aeruginosa, read-out: Minimum Inhibitory Concentration (MIC)) was > 274 µM, the MIC (P. aeruginosa ATCC 19660; Pseudomonas aeruginosa, ATCC19660, read-out: Minimum Inhibitory Concentration (MIC)) was > 274 µM and the MIC (P. aeruginosa ATCC 27853 [2]; Pseudomonas aeruginosa, ATCC27853, read-out: Minimum Inhibitory Concentration (MIC)) was 4.3 µM (≈ 2.01 µg/mL). The MIC (MRSA 6313; [7]) was > 274 µM, the MIC (MRSA 6381; [7]) was 274 µM (≈ 128 µg/mL) and the MIC (MRSA ATCC 33592; [7]) was 137 µM (≈ 64.1 µg/mL). The MIC (S. aureus 6061; [7]) was 8.6 µM (≈ 4.02 µg/mL), the MIC (S. aureus B-767; Staphylococcus aureus, B767, read-out: Minimum Inhibitory Concentration (MIC)) was > 274 µM and the MIC (S. epidermis ATCC 51625; Staphylococcus epidermidis, ATCC51625, read-out: Minimum Inhibitory Concentration (MIC)) was 4.3 µM (≈ 2.01 µg/mL). The MIC (E. cloacae 6053; [8]) was 68.5 µM (≈ 32 µg/mL), the MIC (E. cloacae 6054; [8]) was 137 µM (≈ 64.1 µg/mL) and the “Bactericidal activity in time-kill assay” value [3] was “no trace of antibacterial activity”. The “Bactericidal activity in time-kill assay” value [4] was “no trace of antibacterial activity”.
For CCC[C@@H]1C[C@@H](C(=O)N[C@@H]([C@H]2O[C@H](SC)[C@H](O)[C@@H](O)[C@H]2O)[C@H](C)Cl)N(C)C1 [clindamycin], the “Fold increase in MIC value, Passage #30 vs #0” value (S. aureus ATCC 29213; S. aureus ATCC 29213) was 256 fold, the MIC (S. aureus ATCC 29213; ATCC29213, read-out: MIC on Passage #0 and Passage #1) was 0.125 µg/mL (≈ 0.294 µM) and the MIC (S. aureus ATCC 29213; ATCC29213, read-out: MIC on Passage #30) was 32 µg/mL (≈ 75.3 µM).
In the case of CC[C@H](C)[C@H](NC(=O)[C@H](CCCCN)NC(=O)[C@H](CCC(=O)O)NC(=O)[C@H](CCCCN)NC(=O)[C@H](CO)NC(=O)[C@H](CCCCN)NC(=O)[C@H](CCCNC(=N)N)NC(=O)[C@H](Cc1ccccc1)NC(=O)[C@H](Cc1ccccc1)NC(=O)[C@H](CC(=O)O)NC(=O)CNC(=O)[C@H](CC(C)C)NC(=O)[C@@H](N)CC(C)C)C(=O)NCC(=O)N[C@@H](CCCCN)C(=O)N[C@@H](CCC(=O)O)C(=O)N[C@@H](Cc1ccccc1)C(=O)N[C@@H](CCCCN)C(=O)N[C@@H](CCCNC(=N)N)C(=O)N[C@H](C(=O)N[C@H](C(=O)N[C@@H](CCC(N)=O)C(=O)N[C@@H](CCCNC(=N)N)C(=O)N[C@H](C(=O)N[C@@H](CCCCN)C(=O)N[C@@H](CC(=O)O)C(=O)N[C@@H](Cc1ccccc1)C(=O)N[C@@H](CC(C)C)C(=O)N[C@@H](CCCNC(=N)N)C(=O)N[C@@H](CC(N)=O)C(=O)N[C@@H](CC(C)C)C(=O)N[C@H](C(=O)N1CCC[C@H]1C(=O)N[C@@H](CCCNC(=N)N)C(=O)N[C@H](C(=O)N[C@@H](CCC(=O)O)C(=O)N[C@@H](CO)C(=O)O)[C@@H](C)O)C(C)C)[C@@H](C)CC)C(C)C)[C@@H](C)CC [LL-37], the “Minimum Inhibitory Concentration (MIC)” value (A. baumannii 6043) was 14.2 [64] μM, the “Minimum Inhibitory Concentration (MIC)” value (A. baumannii 6838) was >28.5 [128] μM and the “Minimum Inhibitory Concentration (MIC)” value (K. pneumonia 6066) was >28.5 [128] μM. The “Minimum Inhibitory Concentration (MIC)” value (K. pneumonia 6069) was >28.5 [128] μM, the “Minimum Inhibitory Concentration (MIC)” value (K. pneumonia ATCC 10031) was >28.5 [128] μM and the “Minimum Inhibitory Concentration (MIC)” value (P. aeruginosa 6186) was >28.5 [128] μM. For the same molecule, the “Minimum Inhibitory Concentration (MIC)” value (P. aeruginosa ATCC 19660) was 28.5 [128] μM, the “Minimum Inhibitory Concentration (MIC)” value (P. aeruginosa ATCC 27853 [2]) was 28.5 [128] μM and the “Minimum Inhibitory Concentration (MIC)” value (MRSA 6313) was >28.5 [128] μM. For the same molecule, the “Minimum Inhibitory Concentration (MIC)” value (MRSA 6381) was >28.5 [128] μM, the “Minimum Inhibitory Concentration (MIC)” value (MRSA ATCC 33592) was >28.5 [128] μM and the “Minimum Inhibitory Concentration (MIC)” value (S. aureus 6061) was >28.5 [128] μM. For the same molecule, the “Minimum Inhibitory Concentration (MIC)” value (S. aureus B-767) was >28.5 [128] μM, the “Minimum Inhibitory Concentration (MIC)” value (S. epidermis ATCC 51625) was >28.5 [128] μM and the “Minimum Inhibitory Concentration (MIC)” value (E. cloacae 6053) was >28.5 [128] μM. For the same molecule, the “Minimum Inhibitory Concentration (MIC)” value (E. cloacae 6054) was >28.5 [128] μM.
